Assay results taken from patent US8354499B2, “Cyanine-based probe\tag-peptide pair fluorescence protein imaging and fluorescence protein imaging methods” (Battelle Memorial Institute, priority 2007, dated 2013).

Experiments:
[1] = depending on binding peptide; cited from earlier work
[2] = Absorbance, emission and photophysical properties of free and tag-bound probe; assay type: physicochemical
Excerpt: In addition to NMR, the synthesized probe of formula (I) was characterized by determining the absorbance and emission spectra, as presented in FIG. 1. The free probe has an absorbance maximum at 560 nm and an emission maximum at 568 nm.
The spectra of FIG. 1 are normalized to the probe/tagged MLCK peptide pair.
The tag bound probe has a quantum yield of 0.28.

Non-tagged MLCK peptide = assay: Control titration of the probe with non-tagged MLCK peptide; assay type: binding; details: FIG. 2 circles
[3] = system: peptide-tag (SEQ ID NO. 2) versus FlAsH tag (SEQ ID NO. 3); assay: Single-pot selective labeling / FRET study, tagged MLCK peptide and FlAsH-tag calmodulin; assay type: binding
Experimental: Fluorescent resonance energy transfer (FRET) studies were also performed. Calmodulin which is known to bind MLCK in a 1:1 ratio in the presence of calcium was covalently linked to a FlAsH-tag having sequence CysCysProGlyCysCys (SEQ ID NO. 3). SEQ ID NO. 2 was utilized to label the MLCK peptide as described above.

[4] = system: tagged MLCK peptide (calmodulin binding peptide of myosin light chain kinase with SEQ ID NO. 2 tag on the C-terminus); assay: Fluorescence titration of the formula (I) probe with tagged MLCK peptide; details: titration of tagged MLCK peptide into probe solution, FIG. 2
Excerpt: For the present study, a tagged peptide was created utilizing the calmodulin binding peptide of the myosin light chain kinase (MLCK) having SEQ ID NO. 2 engineered onto the C-terminus (henceforth tagged MLCK peptide). To determine the binding affinity of the probe to the tag, the tagged MLCK peptide was titrated into a solution containing a probe having formula (I). […] This corresponds to peak molar binding in the absence of ethanedithiol.

| Structure (SMILES) | brightness (reported) [1] | extinction coefficient [2] | absorbance maximum ([2]; free probe) [nm] | emission maximum ([2]; free probe) [nm] | lifetime under photo bleaching conditions ([2]; peptide bound probe, relative to FlAsH) | fluorescence emission maximum ([2]; probe bound to peptide tag (red-shift)) [nm] | brightness relative to FlAsH and ReAsH ([2]; tag bound probe) | quantum yield ([2]; tag bound probe) | fluorescence change on titration with non-tagged MLCK peptide (Non-tagged MLCK peptide) | preference for binding of the peptide-tag over FlAsH tag ([3]; single pot labeling with FlAsH and formula (I), FRET results) | FRET between FlAsH labeled calmodulin and formula (I) labeled tagged MLCK peptide ([3]; titration with 0.1-1 μM labeled peptide, FIG. 3) | increase of probe fluorescence upon addition of tagged peptide [4] [fold] |
| --- | --- | --- | --- | --- | --- | --- | --- | --- | --- | --- | --- | --- |
| O=C(O)c1ccccc1-c1c2ccc(=O)c([As]3SCCS3)c-2oc2c([As]3SCCS3)c(O)ccc12 [FlAsH] | 41-60 |  |  |  |  |  |  |  |  |  |  |  |
| CC1(C)C(/C=C/C=C2/N(CCCCS(=O)(=O)O)c3ccc([As]4SCCS4)cc3C2(C)C)=[N+](CCCCS(=O)(=O)[O-])c2ccc([As]3SCCS3)cc21 [formula (I)] |  | 180,000 | 560 | 568 | three times longer than that of FlAsH | 576 | considerably higher than ReAsH | 0.28 | no increase in fluorescence | 85/15 | FRET was observed in proportion to labeling | 5.8 |
